Test results from ChEMBL document CHEMBL3991601, “The target landscape of clinical kinase drugs” (Science, 2017).
The source made the active and inactive calls. Cut-off read from the data, not from the text of the source, for most assays here: actives have a measured Kd and inactives only a lower limit.

Columns and labels:
[1] = target: T1, Serine/threonine-protein kinase D2 (Homo sapiens, UniProt Q9BZL6)
T1 sequence (Q9BZL6 whole entry): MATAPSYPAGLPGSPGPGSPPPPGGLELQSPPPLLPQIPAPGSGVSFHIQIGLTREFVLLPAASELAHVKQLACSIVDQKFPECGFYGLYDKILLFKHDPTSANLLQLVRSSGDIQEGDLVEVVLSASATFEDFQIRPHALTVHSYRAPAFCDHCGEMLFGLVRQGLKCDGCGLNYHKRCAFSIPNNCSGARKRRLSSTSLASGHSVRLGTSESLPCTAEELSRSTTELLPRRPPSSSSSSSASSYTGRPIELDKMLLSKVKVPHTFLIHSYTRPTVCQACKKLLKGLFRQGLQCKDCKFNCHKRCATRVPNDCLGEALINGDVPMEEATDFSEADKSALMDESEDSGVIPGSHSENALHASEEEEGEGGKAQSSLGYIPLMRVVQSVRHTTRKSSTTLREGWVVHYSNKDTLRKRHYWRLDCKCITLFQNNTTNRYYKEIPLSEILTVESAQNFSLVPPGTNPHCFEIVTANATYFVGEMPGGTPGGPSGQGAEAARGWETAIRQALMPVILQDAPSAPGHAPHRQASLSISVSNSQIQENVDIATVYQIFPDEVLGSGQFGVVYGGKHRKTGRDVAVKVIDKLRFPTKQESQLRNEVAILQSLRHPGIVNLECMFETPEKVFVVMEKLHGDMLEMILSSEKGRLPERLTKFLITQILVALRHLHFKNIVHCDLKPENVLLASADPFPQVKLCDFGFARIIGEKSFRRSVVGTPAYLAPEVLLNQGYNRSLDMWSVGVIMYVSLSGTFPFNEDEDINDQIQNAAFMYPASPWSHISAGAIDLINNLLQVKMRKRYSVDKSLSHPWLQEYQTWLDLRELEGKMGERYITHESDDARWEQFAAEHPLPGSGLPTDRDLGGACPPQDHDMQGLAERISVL

[2] = target: T2, ATP-dependent RNA helicase DDX1 (Homo sapiens, UniProt Q92499)
T2 sequence (Q92499 whole entry): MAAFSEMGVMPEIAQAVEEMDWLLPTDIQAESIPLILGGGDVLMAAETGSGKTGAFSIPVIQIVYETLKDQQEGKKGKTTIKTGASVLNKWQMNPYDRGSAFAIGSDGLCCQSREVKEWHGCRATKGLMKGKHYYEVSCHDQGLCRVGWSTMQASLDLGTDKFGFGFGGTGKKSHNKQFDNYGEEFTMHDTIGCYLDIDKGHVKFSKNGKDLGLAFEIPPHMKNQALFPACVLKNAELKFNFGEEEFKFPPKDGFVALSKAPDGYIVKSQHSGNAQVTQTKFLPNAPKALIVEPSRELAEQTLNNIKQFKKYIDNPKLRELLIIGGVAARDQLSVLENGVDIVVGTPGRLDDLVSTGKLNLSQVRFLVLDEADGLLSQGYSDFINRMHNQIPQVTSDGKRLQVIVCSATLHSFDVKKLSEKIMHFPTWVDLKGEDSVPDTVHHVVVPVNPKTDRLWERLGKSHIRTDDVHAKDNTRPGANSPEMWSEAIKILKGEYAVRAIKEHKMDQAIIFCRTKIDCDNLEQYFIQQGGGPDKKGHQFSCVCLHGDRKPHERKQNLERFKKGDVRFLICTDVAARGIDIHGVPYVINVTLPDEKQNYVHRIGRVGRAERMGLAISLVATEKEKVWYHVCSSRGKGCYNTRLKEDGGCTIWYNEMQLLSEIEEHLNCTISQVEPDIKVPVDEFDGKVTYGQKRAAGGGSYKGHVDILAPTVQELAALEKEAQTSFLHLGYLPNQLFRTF

[3] = target: T3, Ephrin type-B receptor 6 (Homo sapiens, UniProt O15197)
T3 sequence (O15197 whole entry): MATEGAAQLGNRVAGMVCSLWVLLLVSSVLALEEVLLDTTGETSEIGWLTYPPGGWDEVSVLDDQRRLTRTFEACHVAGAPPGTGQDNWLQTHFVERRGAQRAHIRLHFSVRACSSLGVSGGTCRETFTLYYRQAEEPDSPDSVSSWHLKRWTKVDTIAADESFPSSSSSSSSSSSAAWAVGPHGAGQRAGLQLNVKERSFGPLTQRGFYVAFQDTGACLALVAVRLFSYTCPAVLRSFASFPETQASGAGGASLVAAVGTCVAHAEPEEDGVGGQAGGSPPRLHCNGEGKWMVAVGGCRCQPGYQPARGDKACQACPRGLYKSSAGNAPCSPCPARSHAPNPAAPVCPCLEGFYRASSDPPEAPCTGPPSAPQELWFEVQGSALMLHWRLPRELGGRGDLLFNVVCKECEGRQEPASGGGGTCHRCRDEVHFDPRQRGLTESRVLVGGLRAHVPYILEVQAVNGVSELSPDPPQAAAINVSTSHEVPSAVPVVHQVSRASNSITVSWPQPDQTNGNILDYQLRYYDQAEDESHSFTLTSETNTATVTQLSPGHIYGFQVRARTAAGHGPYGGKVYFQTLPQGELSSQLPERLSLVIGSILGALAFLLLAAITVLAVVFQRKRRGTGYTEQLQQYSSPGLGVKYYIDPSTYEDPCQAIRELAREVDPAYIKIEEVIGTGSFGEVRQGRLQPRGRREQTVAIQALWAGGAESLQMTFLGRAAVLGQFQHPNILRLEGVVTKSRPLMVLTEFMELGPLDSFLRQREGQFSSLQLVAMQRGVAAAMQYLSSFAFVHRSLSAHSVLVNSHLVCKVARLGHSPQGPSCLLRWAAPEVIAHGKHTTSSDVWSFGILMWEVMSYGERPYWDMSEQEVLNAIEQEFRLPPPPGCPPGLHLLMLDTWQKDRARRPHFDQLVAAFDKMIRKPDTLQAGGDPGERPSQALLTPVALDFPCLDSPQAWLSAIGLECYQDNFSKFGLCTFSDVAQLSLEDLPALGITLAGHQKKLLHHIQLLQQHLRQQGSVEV

[4] = target: Obg-like ATPase 1 (Homo sapiens, UniProt Q9NTK5)
[5] = target: Eukaryotic translation initiation factor 2-alpha kinase 1 (Homo sapiens, UniProt Q9BQI3)
[6] = target: T4, EKC/KEOPS complex subunit TP53RK (Homo sapiens, UniProt Q96S44)
T4 sequence (Q96S44 whole entry): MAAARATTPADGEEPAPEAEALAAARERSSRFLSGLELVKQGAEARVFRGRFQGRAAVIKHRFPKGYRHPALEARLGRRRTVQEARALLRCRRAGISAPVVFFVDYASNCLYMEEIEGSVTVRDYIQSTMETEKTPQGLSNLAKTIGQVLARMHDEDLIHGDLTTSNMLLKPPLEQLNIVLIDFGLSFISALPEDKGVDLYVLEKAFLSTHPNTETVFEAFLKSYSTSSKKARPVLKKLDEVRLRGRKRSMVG
Note: in the data inactive means no Kd found up to 30 µM.

Obg-like ATPase 1, sequence (Q9NTK5 whole entry, looked up): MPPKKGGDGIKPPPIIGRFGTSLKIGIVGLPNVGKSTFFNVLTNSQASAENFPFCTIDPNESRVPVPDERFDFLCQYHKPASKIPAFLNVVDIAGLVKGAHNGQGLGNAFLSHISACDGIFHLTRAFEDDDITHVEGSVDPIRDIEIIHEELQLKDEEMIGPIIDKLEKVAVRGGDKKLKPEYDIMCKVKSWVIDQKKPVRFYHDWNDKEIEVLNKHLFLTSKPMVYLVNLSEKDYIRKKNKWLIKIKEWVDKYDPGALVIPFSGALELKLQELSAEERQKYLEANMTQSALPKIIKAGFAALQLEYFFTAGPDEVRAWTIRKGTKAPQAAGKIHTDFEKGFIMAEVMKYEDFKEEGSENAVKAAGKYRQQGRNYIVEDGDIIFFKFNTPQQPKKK
Eukaryotic translation initiation factor 2-alpha kinase 1, sequence (Q9BQI3 whole entry): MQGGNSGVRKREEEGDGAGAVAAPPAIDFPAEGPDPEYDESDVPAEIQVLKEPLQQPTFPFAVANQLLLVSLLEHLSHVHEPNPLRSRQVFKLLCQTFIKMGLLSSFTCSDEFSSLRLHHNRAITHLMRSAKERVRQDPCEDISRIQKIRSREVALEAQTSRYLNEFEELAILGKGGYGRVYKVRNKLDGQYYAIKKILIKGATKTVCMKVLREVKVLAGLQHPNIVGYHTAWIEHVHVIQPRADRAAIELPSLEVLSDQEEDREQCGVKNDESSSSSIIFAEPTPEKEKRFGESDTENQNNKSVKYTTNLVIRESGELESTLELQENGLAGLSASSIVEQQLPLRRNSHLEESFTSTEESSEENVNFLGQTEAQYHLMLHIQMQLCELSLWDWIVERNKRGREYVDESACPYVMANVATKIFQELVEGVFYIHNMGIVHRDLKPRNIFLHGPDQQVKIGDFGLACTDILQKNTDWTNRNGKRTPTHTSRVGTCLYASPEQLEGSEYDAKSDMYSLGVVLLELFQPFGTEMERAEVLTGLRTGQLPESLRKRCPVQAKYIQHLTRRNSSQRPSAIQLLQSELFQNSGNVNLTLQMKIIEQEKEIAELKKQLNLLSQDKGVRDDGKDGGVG

SMILES	Kd [1]	Kd [2]	Kd [3]	Kd [4]	Kd [5]	Kd [6]
Cc1nc2cc(-n3ncc(C(=O)c4cc5ccccc5[nH]4)c3N)ccc2[nH]1 [FGFR INHIBITOR DEBIO 1347]	> 30 µM (inactive)	> 30 µM (inactive)	0.007 µM	> 30 µM (inactive)	> 30 µM (inactive)	> 30 µM (inactive)
O=C(Nc1nc2cccc(-c3ccc(CN4CCS(=O)(=O)CC4)cc3)n2n1)C1CC1 [FILGOTINIB]	> 30 µM (inactive)	> 30 µM (inactive)	> 30 µM (inactive)	> 30 µM (inactive)	> 30 µM (inactive)	> 30 µM (inactive)
Cc1cccc(-c2nn3c(c2-c2ccnc4ccc(C(N)=O)cc24)CCC3)n1 [GALUNISERTIB]	> 30 µM (inactive)	> 30 µM (inactive)	> 30 µM (inactive)	> 30 µM (inactive)	> 30 µM (inactive)	> 30 µM (inactive)
CNC(=O)c1cccc2cc(Oc3ccnc4cc(OCC5(N)CC5)c(OC)cc34)ccc12 [LUCITANIB]	> 30 µM (inactive)	> 30 µM (inactive)	> 30 µM (inactive)	> 30 µM (inactive)	> 30 µM (inactive)	> 30 µM (inactive)
COc1ncc(-c2ccc3nccc(-c4ccnnc4)c3c2)cc1NS(=O)(=O)c1ccc(F)cc1F [OMIPALISIB]	> 30 µM (inactive)	> 30 µM (inactive)	> 30 µM (inactive)	> 30 µM (inactive)	> 30 µM (inactive)	> 30 µM (inactive)
CCOc1cc2ncc(C#N)c(Nc3ccc(F)c(Cl)c3)c2cc1NC(=O)/C=C/CN(C)C [PELITINIB]	> 30 µM (inactive)	> 30 µM (inactive)	> 30 µM (inactive)	> 30 µM (inactive)	> 30 µM (inactive)	> 30 µM (inactive)
CCCCCCCCCCCCCCCCCCOP(=O)([O-])OC1CC[N+](C)(C)CC1 [PERIFOSINE]	> 30 µM (inactive)	> 30 µM (inactive)	> 30 µM (inactive)	> 30 µM (inactive)	> 30 µM (inactive)	> 30 µM (inactive)
Cc1cnc(NC(=O)Nc2cc(Br)c(C)cc2OC[C@@H]2CNCCO2)cn1 [RABUSERTIB]	> 30 µM (inactive)	> 30 µM (inactive)	> 30 µM (inactive)	> 30 µM (inactive)	> 30 µM (inactive)	> 30 µM (inactive)
N#CC1(c2ccc(NC(=O)c3cccnc3NCc3ccncc3)cc2)CCCC1 [RIVOCERANIB]	> 30 µM (inactive)	> 30 µM (inactive)	> 30 µM (inactive)	> 30 µM (inactive)	> 30 µM (inactive)	> 30 µM (inactive)
O=c1[nH]ccc2cc(OC3CCNCC3)ccc12 [SAR-407899 FREE BASE]	> 30 µM (inactive)	> 30 µM (inactive)	> 30 µM (inactive)	> 30 µM (inactive)	> 30 µM (inactive)	> 30 µM (inactive)
CO[C@H]1C[C@@H]2CC[C@@H](C)[C@@](O)(O2)C(=O)C(=O)N2CCCC[C@H]2C(=O)O[C@H]([C@H](C)C[C@@H]2CC[C@@H](O)[C@H](OC)C2)CC(=O)[C@H](C)/C=C(\C)[C@@H](O)[C@@H](OC)C(=O)[C@H](C)C[C@H](C)/C=C/C=C/C=C/1C [SIROLIMUS]	> 30 µM (inactive)	> 30 µM (inactive)	> 30 µM (inactive)	> 30 µM (inactive)	> 30 µM (inactive)	> 30 µM (inactive)

The remaining lines, values ahead:

Kd [1]	Kd [2]	Kd [3]	Kd [4]	Kd [5]	Kd [6]	SMILES
> 30 µM (inactive)	> 30 µM (inactive)	> 30 µM (inactive)	> 30 µM (inactive)	> 30 µM (inactive)	> 30 µM (inactive)	C#Cc1cccc(Nc2ncnc3cc(OC)c(OCCCCCCC(=O)NO)cc23)c1 [CUDC-101]
> 30 µM (inactive)	> 30 µM (inactive)	> 30 µM (inactive)	> 30 µM (inactive)	> 30 µM (inactive)	> 30 µM (inactive)	COc1ccc(S(=O)(=O)N(C(C)=O)c2ccccc2/C=C/c2cc[n+]([O-])cc2)cc1 [HMN-214]
> 30 µM (inactive)	> 30 µM (inactive)	> 30 µM (inactive)	> 30 µM (inactive)	> 30 µM (inactive)	> 30 µM (inactive)	NC1(c2ccc(-c3nc4ccn5c(=O)[nH]nc5c4cc3-c3ccccc3)cc2)CCC1 [MK-2206]
> 30 µM (inactive)	> 30 µM (inactive)	> 30 µM (inactive)	> 30 µM (inactive)	> 30 µM (inactive)	> 30 µM (inactive)	CN(C[C@@H]1COCCO1)S(=O)(=O)Nc1ccc2ccc3ncc(-c4cnn(C)c4)cc3c(=O)c2c1 [MK-2461]
> 30 µM (inactive)	> 30 µM (inactive)	> 30 µM (inactive)	> 30 µM (inactive)	> 30 µM (inactive)	> 30 µM (inactive)	Cn1cc(-c2cnc3ccc4ccc(CS(=O)(=O)NCc5ccccn5)cc4c(=O)c3c2)cn1 [MK-8033]
6.41 µM (active)	> 30 µM (inactive)	> 30 µM (inactive)	> 30 µM (inactive)	> 30 µM (inactive)	> 30 µM (inactive)	Cn1cc(-c2cnn3c(N)c(Br)c([C@@H]4CCCNC4)nc23)cn1 [SCH-900776]
> 30 µM (inactive)	> 30 µM (inactive)	0.451 µM	> 30 µM (inactive)	> 30 µM (inactive)	> 30 µM (inactive)	CCS(=O)(=O)c1cccc(-c2cc(C(=O)NC3CCN(C)CC3)c(C)c3[nH]c4ncc(C)cc4c23)c1 [TAK-901]
